Source: patent US7531567B2, “Use of a medicament containing an effector of the glutathione metabolism together with α-lipoic acid in kidney replacement therapy” (Serumwerk Bernburg AG, priority 2001, dated 2009)
Where a name gives a salt, the structure may show the parent alone.

Legend:
Assay type in all cases: cell-based, human
peritoneal macrophages [1] = assay: cytokine synthesis of peritoneal macrophages (enzyme immunoassay); settings: treatment period of 6 days (n=10); α-lipoic acid 50 μM, ambroxole 10 μM, enalapril 5 μM, captopril 10 μM
Method: In parallel to this, in this experimental batch the cell culture supernatants were recovered and the cytokines interleukin-6 (IL-6) and interleukin-1 receptor antagonist (IL-1ra) contained therein, synthesized and secreted by the peritoneal macrophages, were determined.

peritoneal macrophages [2] = assay: phagocytic ability of peritoneal macrophages (fluorochrome-labelled bacteria); settings: treatment period of 6 days; for Phagocytosis rate: α-lipoic acid 50 μM, ambroxole 10 μM, enalapril 5 μM, captopril 10 μM
Method: Peritoneal macrophages were isolated analogously to the procedure described under example 3 and cultured ex vivo. The determination of the phagocytic power was carried out by means of a cytofluorometric test at the individual cell level. In this test, the macrophages were cocultured with opsonized and fluorochrome-labelled bacteria. The amount of bacteria taken up in a defined time period was recorded quantitatively by means of the fluorescence intensity in the macrophages and was regarded as a measure of their phagocytic capacity. The influence of the combinations used according to the invention on the phagocytic ability of the peritoneal macrophages after a treatment period of 6 days is presented in Table 3.

[3] = tested on: lymphocytes (peripheral immune cells); assay: intracellular thiol expression of peripheral immune cells (CMFDA flow cytofluorimetry); settings: α-lipoic acid 50 μM, captopril 10 μM, combination at the same concentrations
Method: Peripheral immune cells of healthy donors (n=9) were isolated from the peripheral blood by means of density gradient centrifugation. Lymphocytes having a donor-dependent relative proportion of about 90% in this case normally represent the main fraction of the resulting total population of mononuclear cells. 10% of the mononuclear cells are represented by monocytes. The mononuclear cells obtained were taken up in special cell culture media and incubated in a gas incubator at 37° C., a relative humidity of 98% and 5% relative air-CO2 content. The metabolism of the primarily resting immune cells was activated by means of mitogenic stimulation (0.5 μg/ml of phytohemagglutinin). In order to test the influence of the combinations used according to the invention on the thiol status of thiol-deficient immune cells, these were artificially thiol-depleted. This was carried out by culturing in thiol-deficient media (RPMI 1603) according to tested procedures. Comparison cultures using whole media (RPMI 1640) served for the definition of the best possible normal value under culture conditions. […] Primarily nonfluorogenic CMFDA is in this case passively taken up by the cell. Binding to cytoplasmic thiol groups takes place via the chloromethyl radical. After removal of the acetate radicals by nonspecific cellular esterases, this, now cell membrane-impermeable complex becomes fluorogenic at an excitation wavelength λex=490 nm with an emission wavelength λem=520 nm. The mean fluorescence intensity of the sample (10,000 cells) is directly proportional to the concentration of the intracellular thiol groups. In FIG. 1, the action of the combination of α-lipoic acid and ambroxole (FIG. 1a) and α-lipoic acid and enalapril (FIG. 1b) on the intracellular thiol expression of lymphocytes is shown. […] The data are shown as the ratio of the cellular fluorescence intensity for calibration particles (beads) in each case analyzed in parallel. The active compound concentration of the respective combination is identical to the concentrations of the individual components.

peripheral immune cells = assay: membrane-bound thiol expression of peripheral immune cells (CMTMR flow cytofluorimetry); settings: α-lipoic acid 50 μM, captopril 10 μM, combination at the same concentrations
Method: Peripheral immune cells of healthy donors (n=9) were isolated from the peripheral blood by means of density gradient centrifugation. Lymphocytes having a donor-dependent relative proportion of about 90% in this case normally represent the main fraction of the resulting total population of mononuclear cells. 10% of the mononuclear cells are represented by monocytes. The mononuclear cells obtained were taken up in special cell culture media and incubated in a gas incubator at 37° C., a relative humidity of 98% and 5% relative air-CO2 content. The metabolism of the primarily resting immune cells was activated by means of mitogenic stimulation (0.5 μg/ml of phytohemagglutinin). In order to test the influence of the combinations used according to the invention on the thiol status of thiol-deficient immune cells, these were artificially thiol-depleted. This was carried out by culturing in thiol-deficient media (RPMI 1603) according to tested procedures. Comparison cultures using whole media (RPMI 1640) served for the definition of the best possible normal value under culture conditions. The expression of membrane-bound thiol groups was likewise determined by flow cytofluorimetry. In this connection, chloromethyltetramethylrhodamine (CMTMR) was employed as a thiol conjugate under the conditions of a blocked membrane potential and of an inhibited diffusion capacity of the cells. The fluorescence intensity of the bound fluorochrome molecules on the cell membrane is in this case in turn proportional to the amount of the thiol groups on the cell surface.

peritoneal macrophages [4] = assay: degree of differentiation and activation of peritoneal macrophages (CD15, CD11c, CD69, CD71); settings: incubation for 6 days, control = 1.0, α-lipoic acid 50 μM, ambroxole 10 μM, enalapril 5 μM, captopril 10 μM; for CD15/69: CD69 on CD15-positive cells; for CD11c/71: CD71 on CD11c-positive cells
Method: Peritoneal macrophages were isolated from patients under kidney replacement therapy according to the processes described under example 3 and cultured in the presence of the combinations of α-lipoic acid and effectors of the glutathione metabolism named according to the invention. After incubation for 6 days, the degree of differentiation of the peritoneal macrophages was determined cytofluorometrically by means of the expression of the cell surface antigens CD15 and CD11c, and the degree of cellular activation by means of the coexpression of the activation antigens CD69 on CD15-positive cells and CD71 on CD11c-positive cells.

peritoneal macrophages [5] = assay: stability of membrane-bound thiol restitution in peritoneal macrophages in the dialysis model; settings: dialysis model over 14 days; FIG. 7
Method: The peritoneal macrophages described under example 3, which were thiol-restituted by means of the combinations used according to the invention, were removed from this test system after 6 days and cultured in a dialysis model over a period of 14 days. For this, the peritoneal macrophages were adapted to mobile collagen IV-coated matrices and brought into contact with conventional dialysis solution 3 times daily for 60 minutes each. This model served here for the induction of a combined […]/osmotic stress. In FIG. 6, the action of the combination of α-lipoic acid and ambroxole (FIG. 6a), and α-lipoic acid and enalapril (FIG. 6b) on the intracellular thiol expression of the peritoneal macrophages in the time kinetics is presented. The membrane expression of thiols was determined by means of the mean fluorescence intensity (mfi) of the sample (3000 cells/measurement) after coupling to a chloro-methylfluorochrome derivative.

T lymphocytes = assay: activation markers CD69, CD25, CD71 of phytohemagglutinin-stimulated T lymphocytes; settings: thiol-deficient cells, culture period of 72 hours, FIG. 3
Method: In the culture batch described under example 1, human T lymphocytes were stimulated with […] of phyto-hemagglutinin. […] The influence of the combinations used according to the invention on the activation markers CD69 (early activation antigen), CD25 (intermediate activation antigen) and CD71 (late activation antigen) of T lymphocytes was investigated. In FIG. 3, the action of the combination of α-lipoic acid and ambroxole (FIG. 3a), and α-lipoic acid and enalapril (FIG. 3b) on the activation index of T lymphocytes is shown. Compared with normal T lymphocytes (activation index=1.0), in thiol-deficient cells a clear lowering of the activatability, confirming the cellular functional disorder, is to be noted. […] It can thus be concluded that the normalization of the cellular thiol status mediated by the combined use of α-lipoic acid and the respective effectors of the glutathione metabolism is accompanied by a restitution of the cellular functionality.

peritoneal macrophages [6] = assay: cellular thiol expression of peritoneal macrophages in kidney replacement therapy; settings: time kinetics over 14 days (n=12); FIG. 4
Method: Peritoneal macrophages were isolated from the effluate of the peritoneal dialysis of high-grade renally insufficient patients, taken up in cell culture medium and incubated in a gas incubator at 37° C., a relative humidity of 98% and 7.5% relative air-CO2 content. In order to test the influence of the combinations used according to the invention on the thiol status of the peritoneal macrophages, in each case a fraction was treated with α-lipoic acid, the effector of the glutathione metabolism ambroxole or the ACE inhibitor enalapril or with the combination of α-lipoic acid/ambroxole or α-lipoic acid/enalapril, while in each case a further fraction was used as an untreated control. The determination of the cellular thiol status was carried out by means of the measuring method described under 1. The membrane expression of thiols was determined by means of the mean fluorescence intensity (mfi) of the sample (3000 cells/measurement) after coupling to a chloromethylfluorochrome derivative. In FIG. 4, the effect of the combination of α-lipoic acid and ambroxole (FIG. 4a), and α-lipoic acid and enalapril (FIG. 4b) in the time kinetics over 14 days is shown (n=12).

| SMILES | IL-1ra (peritoneal macrophages [1]) | IL-6 (peritoneal macrophages [1]) | Phagocytosis rate (peritoneal macrophages [2]) | CD15/69 (peritoneal macrophages [4]) | CD11c/71 (peritoneal macrophages [4]) | CD11c (peritoneal macrophages [4]) | CD15 (peritoneal macrophages [4]) | membrane-bound thiol expression in the dialysis model (in words) (peritoneal macrophages [5]) | effect on the activation index of T lymphocytes (in words) (T lymphocytes) | increase in the phagocytosis rate in relation to the untreated control, factor (peritoneal macrophages [2]) | further results |
| --- | --- | --- | --- | --- | --- | --- | --- | --- | --- | --- | --- |
| C[C@H](CS)C(=O)N1CCC[C@H]1C(=O)O [Captopril, 1-[(2S)-3-mercapto-2-methylpropionyl]-L-proline] | 129.4 ± 25.1 ng/10^6 cells | 42.9 ± 7.7 ng/10^6 cells | 653 ± 43 mfi/10,000 cells | 1.69 ± 0.21 | 1.52 ± 0.16 | 1.26 ± 0.24 | 1.19 ± 0.14 |  |  |  | intracellular thiol expression ([3]; culture period 0 d): 2.88 ± 0.20 mfiBeads/Ratio; intracellular thiol expression ([3]; culture period 1 d): 2.80 ± 0.21 mfiBeads/Ratio; intracellular thiol expression ([3]; culture period 2 d): 2.76 ± 0.22 mfiBeads/Ratio; intracellular thiol expression ([3]; culture period 3 d): 2.49 ± 0.26 mfiBeads/Ratio; intracellular thiol expression ([3]; culture period 4 d): 2.21 ± 0.36 mfiBeads/Ratio; intracellular thiol expression ([3]; culture period 6 d): 1.83 ± 0.33 mfiBeads/Ratio; intracellular thiol expression ([3]; culture period 8 d): 1.02 ± 0.39 mfiBeads/Ratio; intracellular thiol expression ([3]; culture period 10 d): 0.91 ± 0.46 mfiBeads/Ratio; intracellular thiol expression ([3]; culture period 12 d): 0.76 ± 0.49 mfiBeads/Ratio; intracellular thiol expression ([3]; culture period 14 d): 0.75 ± 0.56 mfiBeads/Ratio; Membrane-bound thiol expression (peripheral immune cells; culture period 0 d): 2.37 ± 0.45 mfiBeads/Ratio; Membrane-bound thiol expression (peripheral immune cells; culture period 1 d): 2.63 ± 0.39 mfiBeads/Ratio; Membrane-bound thiol expression (peripheral immune cells; culture period 2 d): 2.54 ± 0.41 mfiBeads/Ratio; Membrane-bound thiol expression (peripheral immune cells; culture period 3 d): 2.52 ± 0.38 mfiBeads/Ratio; Membrane-bound thiol expression (peripheral immune cells; culture period 4 d): 2.50 ± 0.41 mfiBeads/Ratio; Membrane-bound thiol expression (peripheral immune cells; culture period 6 d): 2.46 ± 0.50 mfiBeads/Ratio; Membrane-bound thiol expression (peripheral immune cells; culture period 8 d): 2.01 ± 0.39 mfiBeads/Ratio; Membrane-bound thiol expression (peripheral immune cells; culture period 10 d): 1.68 ± 0.29 mfiBeads/Ratio; Membrane-bound thiol expression (peripheral immune cells; culture period 12 d): 1.02 ± 0.51 mfiBeads/Ratio; Membrane-bound thiol expression (peripheral immune cells; culture period 14 d): 0.99 ± 0.46 mfiBeads/Ratio |
| CCOC(=O)[C@H](CCc1ccccc1)NC(C)C(=O)N1CCCC1C(=O)O (stereo in doubt) [Enalapril, 1-{N—[(S)-1-ethoxycarbonyl-3-phenylpropyl]-L-alanyl}-L-proline] | 121.1 ± 16.9 ng/10^6 cells | 41.7 ± 7.3 ng/10^6 cells | 567 ± 59 mfi/10,000 cells | 1.19 ± 0.12 | 1.10 ± 0.14 | 1.23 ± 0.22 | 1.21 ± 0.22 | marginal effects | only equivalent in the case of the effectuation of the CD25 antigen of the α-lipoic acid | 1.53 |  |
| Nc1c(Br)cc(Br)cc1CNC1CCC(O)CC1 (stereo not drawn) [Ambroxole, hydrochloride] | 118.6 ± 21.3 ng/10^6 cells | 51.8 ± 8.1 ng/10^6 cells | 501 ± 52 mfi/10,000 cells | 0.98 ± 0.11 | 0.96 ± 0.1 | 1.01 ± 0.09 | 0.98 ± 0.13 | marginal effects | no influence on one of the three activation markers | 1.35 | effect on the cellular thiol expression of peritoneal macrophages (in words) (peritoneal macrophages [6]): no effect |
